SMILES strings stand for the structures. Where only a bound is given, the exact number is not on record here.

The target in this test is T1, human TLR8 (Homo sapiens, UniProt Q9NR97).
T1 sequence (Q9NR97 27-1041): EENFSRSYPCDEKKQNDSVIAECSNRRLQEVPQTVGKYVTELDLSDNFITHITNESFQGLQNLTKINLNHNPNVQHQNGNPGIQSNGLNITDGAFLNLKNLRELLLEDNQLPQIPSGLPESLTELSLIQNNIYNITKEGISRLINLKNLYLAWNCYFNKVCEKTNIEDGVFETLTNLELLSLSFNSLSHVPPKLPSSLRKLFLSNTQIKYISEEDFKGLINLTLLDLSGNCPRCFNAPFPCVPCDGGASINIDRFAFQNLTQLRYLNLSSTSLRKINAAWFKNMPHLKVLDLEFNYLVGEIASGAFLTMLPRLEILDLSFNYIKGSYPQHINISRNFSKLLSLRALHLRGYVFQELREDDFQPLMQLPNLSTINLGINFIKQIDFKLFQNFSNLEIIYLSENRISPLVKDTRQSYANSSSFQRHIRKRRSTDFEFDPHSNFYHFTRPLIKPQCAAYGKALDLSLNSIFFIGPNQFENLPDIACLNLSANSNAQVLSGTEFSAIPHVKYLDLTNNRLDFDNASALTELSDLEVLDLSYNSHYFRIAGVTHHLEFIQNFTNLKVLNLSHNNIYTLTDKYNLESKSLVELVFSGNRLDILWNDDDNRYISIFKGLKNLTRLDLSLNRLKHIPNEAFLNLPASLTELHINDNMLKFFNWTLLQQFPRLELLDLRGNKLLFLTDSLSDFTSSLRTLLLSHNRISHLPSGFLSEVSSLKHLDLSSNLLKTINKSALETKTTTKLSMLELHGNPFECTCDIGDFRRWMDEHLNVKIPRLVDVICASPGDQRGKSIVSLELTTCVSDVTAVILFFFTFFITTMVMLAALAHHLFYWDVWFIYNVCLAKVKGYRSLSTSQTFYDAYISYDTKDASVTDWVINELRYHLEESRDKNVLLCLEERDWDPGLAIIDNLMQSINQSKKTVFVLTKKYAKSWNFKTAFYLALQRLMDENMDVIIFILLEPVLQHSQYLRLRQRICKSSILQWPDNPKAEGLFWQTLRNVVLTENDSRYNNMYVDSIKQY
Description: HEK293-Blue-hTLR-8 cells assay. The conditions noted are these: HEK293-Blue-hTLR8 cells, R848 stimulation, 20 hrs, SEAP reporter; read-out: HEK/hTLR8 IC50. Format: cell-based. From the text:
HEK293-Blue-hTLR-8 Cells Assay:
A stable HEK293-Blue-hTLR-8 cell line was purchased from InvivoGen (Cat. #: hkb-htlr8, San Diego, California, USA). These cells were originally designed for studying the stimulation of human TLR8 by monitoring the activation of NF-κB. A SEAP (secreted embryonic alkaline phosphatase) reporter gene was placed under the control of the IFN-β minimal promoter fused to five NF-κB and AP-1-binding sites. The SEAP was induced by activating NF-κB and AP-1 via stimulating HEK-Blue hTLR8 cells with TLR8 ligands. Therefore the reporter expression was declined by TLR8 antagonist under the stimulation of a ligand, such as R848, for incubation of 20 hrs. The cell culture supernatant SEAP reporter activity was determined using QUANTI-Blue™kit (Cat. #: rep-qb1, Invivogen, San Diego, Ca, USA) at a wavelength of 640 nm, a detection medium that turns purple or blue in the presence of alkaline phosphatase.
HEK293-Blue-hTLR8 cells were incubated at a density of 250,000-450,000 cells/mL in a volume of 170 μL in a 96-well plate in Dulbecco's Modified Eagle's medium (DMEM) containing 4.5 g/L glucose, 50 U/mL penicillin, […], […], 2 mM L-glutamine, 10% (v/v) heat-inactivated fetal bovine serum with addition of 20 μL test compound 1n a serial dilution in the presence of final DMSO at 1% and 10 μL of 60 uM R848 in above DMEM, perform incubation under 37° C. in a CO2 incubator for 20 hrs. Then 20 μL of the supernatant from each well was incubated with 180 μL Quanti-blue substrate solution at 37° C. for 2 hrs and the absorbance was read at 620-655 nm using a spectrophotometer. The signaling pathway that TLR8 activation leads to downstream NF-κB activation has been widely accepted, and therefore similar reporter assay was modified for evaluating TLR8 antagonist.
As for `C[C@@H]1CN(c2ccc(C#N)c3ncccc23)C[C@@H]2c3ccc(N[C@@H]4CNC[C@H]4F)cc3CN12` [Example 33, 5-[(4R,10bS)-8-[[(3R,4R)-4-fluoropyrrolidin-3-yl]amino]-4-methyl-3,4,6,10b-tetrahydro-1H-pyrazino[2,1-a]isoindol-2-yl]quinoline-8-carbonitrile], the IC50 is less than 3.2 nM.
As for `C[C@@H]1CN(c2ccc(C#N)n3nccc23)C[C@@H]2c3ccc(N4C[C@@H](N)[C@](C)(O)C4)cc3CN12` [Example 108, 4-[(4R,10bS)-8-[(3R,4R)-4-amino-3-hydroxy-3-methyl-pyrrolidin-1-yl]-4-methyl-3,4,6,10b-tetrahydro-1H-pyrazino[2,1-a]isoindol-2-yl]pyrazolo[1,5-a]pyridine-7-carbonitrile], the figure is 8.9 nM; as for `C[C@@H]1CN(c2ccc(C#N)c3ncccc23)C[C@@H]2c3ccc(N4CC(N)C5(COC5)C4)cc3CN12` (stereo partly drawn) [Example 18, 5-[(4R,10bS)-8-(5-amino-2-oxa-7-azaspiro[3.4]octan-7-yl)-4-methyl-3,4,6,10b-tetrahydro-1H-pyrazino[2,1-a]isoindol-2-yl]quinoline-8-carbonitrile], less than 3.2 nM.
The value for `CO[C@H]1CCN(c2ccc3c(c2)CN2[C@H](C)CN(c4ccc(C#N)n5nccc45)C[C@H]32)C[C@H]1N` [Example 106, 4-[(4R,10bS)-8-[(3R,4S)-3-amino-4-methoxy-1-piperidyl]-4-methyl-3,4,6,10b-tetrahydro-1H-pyrazino[2,1-a]isoindol-2-yl]pyrazolo[1,5-a]pyridine-7-carbonitrile] was 2.9 nM.
For `C[C@@H]1CN(c2ccc(C#N)c3ncccc23)C[C@@H]2c3ccc(N4C[C@@H](N)[C@@H](F)C4)cc3CN12` [Example 47, 5-[(4R,10bS)-8-[(3R,4S)-3-amino-4-fluoro-pyrrolidin-1-yl]-4-methyl-3,4,6,10b-tetrahydro-1H-pyrazino[2,1-a]isoindol-2-yl]quinoline-8-carbonitrile], the IC50 was 0.6 nM.
The value for `C[C@@H]1CN(c2ccc(C#N)c3ncccc23)C[C@@H]2c3ccc(N4CCNC[C@@](C)(O)C4)cc3CN12` [Example 55B, 5-[(4R,10bS)-8-[(6R)-6-hydroxy-6-methyl-1,4-diazepan-1-yl]-4-methyl-3,4,6,10b-tetrahydro-1H-pyrazino[2,1-a]isoindol-2-yl]quinoline-8-carbonitrile] was less than 3.2 nM; that for `C[C@@H]1CN(c2ccc(C#N)n3nccc23)C[C@@H]2c3ccc(N4C[C@@H](N)[C@H](O)C4)cc3CN12` [Example 110, 4-[(4R,10bS)-8-[(3R,4R)-3-amino-4-hydroxy-pyrrolidin-1-yl]-4-methyl-3,4,6,10b-tetrahydro-1H-pyrazino[2,1-a]isoindol-2-yl]pyrazolo[1,5-a]pyridine-7-carbonitrile] was 5 nM.
As for `C[C@@H]1CN(c2ccc(C#N)c3ncccc23)C[C@@H]2c3ccc(NC4CNCCOC4)cc3CN12` (stereo partly drawn) [Example 56, 5-[(4R,10bS)-4-methyl-8-(1,4-oxazepan-6-ylamino)-3,4,6,10b-tetrahydro-1H-pyrazino[2,1-a]isoindol-2-yl]quinoline-8-carbonitrile], the IC50 was less than 3.2 nM.
Consider `C[C@@H]1CN(c2ccc(C#N)c3ncccc23)C[C@@H]2c3ccc(N4CCNCC(O)C4)cc3CN12` (stereo partly drawn) [Example 15, 5-[(4R,10bS)-8-(6-hydroxy-1,4-diazepan-1-yl)-4-methyl-3,4,6,10b-tetrahydro-1H-pyrazino[2,1-a]isoindol-2-yl]quinoline-8-carbonitrile], for which the IC50 was less than 3.2 nM.
For `CO[C@H]1CN(c2ccc3c(c2)CN2[C@H](C)CN(c4ccc(C#N)n5nccc45)C[C@H]32)C[C@@H]1N` [Example 95, 4-[(4R,10bS)-8-[(3S,4S)-3-amino-4-methoxy-pyrrolidin-1-yl]-4-methyl-3,4,6,10b-tetrahydro-1H-pyrazino[2,1-a]isoindol-2-yl]pyrazolo[1,5-a]pyridine-7-carbonitrile], the IC50 turned out to be 4.6 nM.
The value for `C[C@@H]1CN(c2ccc(C#N)c3ncccc23)C[C@@H]2c3ccc(N[C@H]4CNC[C@@H]4F)cc3CN12` [Example 31, 5-[(4R,10bS)-8-[[(3S,4S)-4-fluoropyrrolidin-3-yl]amino]-4-methyl-3,4,6,10b-tetrahydro-1H-pyrazino[2,1-a]isoindol-2-yl]quinoline-8-carbonitrile] was less than 3.2 nM; that for `CN[C@H]1CN(c2ccc3c(c2)CN2[C@H](C)CN(c4ccc(C#N)c5ncccc45)C[C@H]32)C[C@@H]1OC` [Example 23, 5-[(4R,10bS)-8-[(3S,4S)-3-methoxy-4-(methylamino)pyrrolidin-1-yl]-4-methyl-3,4,6,10b-tetrahydro-1H-pyrazino[2,1-a]isoindol-2-yl]quinoline-8-carbonitrile] was less than 3.2 nM.
Turning to `C[C@@H]1CN(c2ccc(C#N)c3ncccc23)C[C@@H]2c3ccc(C4CNC4)cc3CN12` [Example 29, 5-[(4R,10bS)-8-(azetidin-3-yl)-4-methyl-3,4,6,10b-tetrahydro-1H-pyrazino[2,1-a]isoindol-2-yl]quinoline-8-carbonitrile], the IC50 is less than 3.2 nM.
The value for `C[C@@H]1CN(c2ccc(C#N)c3ncccc23)C[C@@H]2c3ccc(N4C[C@H]5NCCO[C@@H]5C4)cc3CN12` [Example 44, 5-[(4R,10bS)-4-methyl-8-[(4aR,7aR)-3,4,4a,5,7,7a-hexahydro-2H-pyrrolo[3,4-b][1,4]oxazin-6-yl]-3,4,6,10b-tetrahydro-1H-pyrazino[2,1-a]isoindol-2-yl]quinoline-8-carbonitrile] was 0.4 nM; that for `CO[C@@H]1CN(c2ccc3c(c2)CN2[C@H](C)CN(c4ccc(C#N)n5ncc(F)c45)C[C@H]32)C[C@H]1N` [Example 113, 4-[(4R,10bS)-8-[(3R,4R)-3-amino-4-methoxy-pyrrolidin-1-yl]-4-methyl-3,4,6,10b-tetrahydro-1H-pyrazino[2,1-a]isoindol-2-yl]-3-fluoro-pyrazolo[1,5-a]pyridine-7-carbonitrile] was 2 nM.
As for `C[C@@H]1CN(c2ccc(C#N)c3ncccc23)C[C@@H]2c3ccc(N4CC5(CNCCO5)C4)cc3CN12` [Example 35, 5-[(4R,10bS)-4-methyl-8-(5-oxa-2,8-diazaspiro[3.5]nonan-2-yl)-3,4,6,10b-tetrahydro-1H-pyrazino[2,1-a]isoindol-2-yl]quinoline-8-carbonitrile], the figure is less than 3.2 nM.
Consider `C[C@@H]1CN(c2ccc(C#N)c3ncccc23)C[C@@H]2c3ccc(N4CCNC[C@](C)(O)C4)cc3CN12` [Example 55A, 5-[(4R,10bS)-8-[(6S)-6-hydroxy-6-methyl-1,4-diazepan-1-yl]-4-methyl-3,4,6,10b-tetrahydro-1H-pyrazino[2,1-a]isoindol-2-yl]quinoline-8-carbonitrile], for which the IC50 was less than 3.2 nM.
The value for `C[C@@H]1CN(c2ccc(C#N)n3nccc23)C[C@@H]2c3ccc(N4C[C@H](N)[C@@](C)(O)C4)cc3CN12` [Example 109, 4-[(4R,10bS)-8-[(3S,4S)-4-amino-3-hydroxy-3-methyl-pyrrolidin-1-yl]-4-methyl-3,4,6,10b-tetrahydro-1H-pyrazino[2,1-a]isoindol-2-yl]pyrazolo[1,5-a]pyridine-7-carbonitrile] was 6.7 nM.
